The source of these data is patent US10093630B2, “Pyrazole compounds and methods of making and using same” (ABIDE THERAPEUTICS, INC., priority 2014, dated 2018).

Read-outs that look alike come from different tables or passages of the source. A value given as a limit tells only on which side of the number the result lay.

Holding throughout (assay): In vitro competitive activity-based protein profiling (gel-based, FP-Rh or HT-01 probe)
Assay type in all cases: biochemical

Assay [1] has as its target T1, ABHD6 (Mus musculus, UniProt Q8R2Y0).
T1 construct: Proteomes (mouse brain membrane fraction or cell lysates); from tissue; host or cells: mouse brain membrane fraction (or cell lysates, not specified)
T1 sequence (Q8R2Y0 1-336): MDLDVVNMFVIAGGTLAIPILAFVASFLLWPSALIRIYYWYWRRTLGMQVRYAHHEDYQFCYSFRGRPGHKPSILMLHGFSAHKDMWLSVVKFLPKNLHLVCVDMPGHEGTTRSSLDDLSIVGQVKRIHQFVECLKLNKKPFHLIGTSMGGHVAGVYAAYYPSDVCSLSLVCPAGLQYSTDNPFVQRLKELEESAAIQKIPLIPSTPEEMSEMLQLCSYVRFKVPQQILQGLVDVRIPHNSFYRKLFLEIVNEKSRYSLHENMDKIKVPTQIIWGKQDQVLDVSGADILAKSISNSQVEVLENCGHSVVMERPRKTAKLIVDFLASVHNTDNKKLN
As to conditions: for inhibition at 1 µM: 1 μM inhibitor, read-out: % Inhibition at 1 μM, C = ABHD6; for inhibition at 10 µM: 10 μM inhibitor, read-out: % Inhibition at 10 μM, C = ABHD6; for IC50: mouse brain membrane fraction or cell lysates, 30 min preincubation at 37° C., read-out: Mouse (IC50 value, nM) ABHD6. The method, boiled down:
(§1)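 Mouse brain membrane or cell lysate proteomes (1.0 mg/mL) preincubated with inhibitors 30 min at 37° C, then labelled with FP-Rh or HT-01 for 30 min at 37° C. After SDS-PAGE, activity quantified from fluorescent band intensity.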

In assay [2] the target is T2, PLA2G7 (Mus musculus, UniProt Q60963).
T2 construct: Proteomes (mouse brain membrane fraction or cell lysates); from tissue; host or cells: mouse brain membrane fraction (or cell lysates, not specified)
T2 sequence (Q60963 22-440): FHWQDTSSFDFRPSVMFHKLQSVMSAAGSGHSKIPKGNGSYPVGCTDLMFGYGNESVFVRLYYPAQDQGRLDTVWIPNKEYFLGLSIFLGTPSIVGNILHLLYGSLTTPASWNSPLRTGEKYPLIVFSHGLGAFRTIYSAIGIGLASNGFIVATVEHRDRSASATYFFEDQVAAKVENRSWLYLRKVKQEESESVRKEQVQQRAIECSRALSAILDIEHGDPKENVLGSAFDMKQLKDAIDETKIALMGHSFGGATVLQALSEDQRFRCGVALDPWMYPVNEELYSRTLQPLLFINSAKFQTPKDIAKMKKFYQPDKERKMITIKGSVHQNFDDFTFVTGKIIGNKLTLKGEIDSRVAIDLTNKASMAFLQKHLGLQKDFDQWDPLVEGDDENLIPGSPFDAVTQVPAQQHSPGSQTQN
As to conditions: for inhibition at 1 µM: 1 μM inhibitor, read-out: % Inhibition at 1 μM, D = PLA2G7; for inhibition at 10 µM: 10 μM inhibitor, read-out: % Inhibition at 10 μM, D = PLA2G7; for IC50: mouse brain membrane fraction or cell lysates, 30 min preincubation at 37° C. The gist of the method:
as §1

Assay [3] deals with T3, MAGL (Mus musculus, UniProt O35678).
T3 construct: Proteomes (mouse brain membrane fraction or cell lysates); from tissue; host or cells: mouse brain membrane fraction (or cell lysates, not specified)
T3 sequence (O35678 1-303): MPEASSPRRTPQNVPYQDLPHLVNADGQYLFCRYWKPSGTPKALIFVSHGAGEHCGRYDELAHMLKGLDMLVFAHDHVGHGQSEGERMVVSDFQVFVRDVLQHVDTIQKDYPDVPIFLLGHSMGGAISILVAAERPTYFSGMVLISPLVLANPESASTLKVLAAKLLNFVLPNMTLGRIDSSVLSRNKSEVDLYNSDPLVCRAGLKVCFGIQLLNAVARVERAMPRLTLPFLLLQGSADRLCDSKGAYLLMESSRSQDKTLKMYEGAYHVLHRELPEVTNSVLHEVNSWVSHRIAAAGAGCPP
The conditions noted are these: for inhibition at 1 µM: 1 μM inhibitor; for inhibition at 10 µM: 10 μM inhibitor; for IC50: mouse brain membrane fraction or cell lysates, 30 min preincubation at 37° C., read-out: Mouse (IC50 value, nM) MAGL. The gist of the method:
as §1

Assay [4] concerns the target T4, FAAH (Mus musculus, UniProt O08914).
T4 construct: Proteomes (mouse brain membrane fraction or cell lysates); from tissue; host or cells: mouse brain membrane fraction (or cell lysates, not specified)
T4 sequence (O08914 1-579): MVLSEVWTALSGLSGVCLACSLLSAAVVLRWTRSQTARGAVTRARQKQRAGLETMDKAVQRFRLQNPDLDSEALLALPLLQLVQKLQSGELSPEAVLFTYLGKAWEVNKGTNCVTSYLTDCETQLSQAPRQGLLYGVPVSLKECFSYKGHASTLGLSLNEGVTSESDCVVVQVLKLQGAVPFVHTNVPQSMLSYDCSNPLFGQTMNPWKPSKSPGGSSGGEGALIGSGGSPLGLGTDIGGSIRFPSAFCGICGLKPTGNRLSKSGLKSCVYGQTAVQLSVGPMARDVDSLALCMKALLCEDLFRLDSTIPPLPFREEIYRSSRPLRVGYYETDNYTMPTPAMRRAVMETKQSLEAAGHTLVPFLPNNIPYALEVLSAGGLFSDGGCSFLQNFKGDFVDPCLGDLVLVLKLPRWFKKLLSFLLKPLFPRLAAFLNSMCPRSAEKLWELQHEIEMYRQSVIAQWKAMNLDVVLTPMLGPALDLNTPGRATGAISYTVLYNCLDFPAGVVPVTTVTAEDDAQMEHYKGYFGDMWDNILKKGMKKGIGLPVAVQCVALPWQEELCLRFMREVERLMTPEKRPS
As to conditions: for inhibition at 1 µM: 1 μM inhibitor, read-out: % Inhibition at 1 μM, B = FAAH; for inhibition at 10 µM: 10 μM inhibitor, read-out: % Inhibition at 10 μM, B = FAAH; for IC50: mouse brain membrane fraction or cell lysates, 30 min preincubation at 37° C., read-out: Mouse (IC50 value, nM) FAAH. The gist of the method: as §1

Consider `O=C(N1CCN(c2ccccc2N2CCCC2)CC1)n1cc(C(F)(F)F)cn1` [Example 239, (4-(2-(Pyrrolidin-1-yl)phenyl)piperazin-1-yl)(4-(trifluoromethyl)-1H-pyrazol-1-yl)methanone], for which the inhibition at 1 µM in assay [1], in assay [2], in assay [3] and in assay [4] was over 75% in each case. The inhibition at 10 µM in assay [1], in assay [2], in assay [3] and in assay [4] was over 75% throughout.

`O=C(N1CCN(c2cccc(N3CCCC3)c2)CC1)n1cc(C(F)(F)F)cn1` [Example 240, (4-(3-(Pyrrolidin-1-yl)phenyl)piperazin-1-yl)(4-(trifluoromethyl)-1H-pyrazol-1-yl)methanone]: the inhibition at 1 µM in assay [1], in assay [2], in assay [3] and in assay [4] was over 75% in each case. Further, the inhibition at 10 µM in assay [1], in assay [2], in assay [3] and in assay [4] was over 75% each time.

Take `O=C(N1CCN(c2ccc(N3CCCC3)cc2)CC1)n1cc(C(F)(F)F)cn1` [Example 241, (4-(4-(Pyrrolidin-1-yl)phenyl)piperazin-1-yl)(4-(trifluoromethyl)-1H-pyrazol-1-yl)methanone]: the inhibition at 1 µM in assay [1], in assay [2], in assay [3] and in assay [4] was over 75% each time. The inhibition at 10 µM in assay [1], in assay [2], in assay [3] and in assay [4] was over 75% in each case. Also, the IC50 in assay [1], in assay [2], in assay [3] and in assay [4] was under 100 nM in each case.

For `CCN(Cc1cccc(N2CCOCC2)c1)C(=O)n1cc(C#N)cn1` [Example 242, 4-Cyano-N-ethyl-N-(3-morpholinobenzyl)-1H-pyrazole-1-carboxamide], the inhibition at 1 µM is 25 to 75% in assay [1], under 25% in assay [2], over 75% in assay [3] and over 75% in assay [4].

On to `CCN(Cc1cccc(Cl)c1)C(=O)n1cc(C#N)cn1` [Example 243, N-(3-chlorobenzyl)-4-cyano-N-ethyl-1H-pyrazole-1-carboxamide], for which the inhibition at 1 µM in assay [1] is over 75%; in assay [2], under 25%; in assay [3], over 75%; in assay [4], over 75%. In addition, the IC50 was over 1000 nM in assay [1], over 1000 nM in assay [2], 100 to 1000 nM in assay [3] and under 100 nM in assay [4].

As for `CCN(Cc1cccc(Cl)c1)C(=O)n1cc(C(F)(F)F)cn1` [Example 244, N-(3-Chlorobenzyl)-N-ethyl-4-(trifluoromethyl)-1H-pyrazole-1-carboxamide], the inhibition at 1 µM in assay [1] is 25 to 75%; in assay [2], under 25%; in assay [3] it was 25 to 75%; in assay [4], over 75%. Moreover, the IC50 in assay [1] was over 1000 nM; in assay [2] it was over 1000 nM; in assay [3], over 1000 nM; in assay [4], under 100 nM.

With `CCN(Cc1cccc(Cl)c1)C(=O)n1cc(C)cn1` [Example 245, N-(3-chlorobenzyl)-N-ethyl-4-methyl-1H-pyrazole-1-carboxamide], the inhibition at 1 µM in assay [1] (gel-based competitive ABPP), in assay [2] (gel-based competitive ABPP), in assay [3] (gel-based competitive ABPP) and in assay [4] (gel-based competitive ABPP) was under 25% in each case.

For the molecule `CCN(Cc1cccc(C)c1)C(=O)n1cc(C#N)cn1` [Example 246, 4-Cyano-N-ethyl-N-(3-methylbenzyl)-1H-pyrazole-1-carboxamide], the inhibition at 1 µM is over 75% in assay [1] (gel-based competitive ABPP), under 25% in assay [2] (gel-based competitive ABPP), over 75% in assay [3] (gel-based competitive ABPP) and over 75% in assay [4] (gel-based competitive ABPP). Also, the IC50 was 100 to 1000 nM in assay [1], over 1000 nM in assay [2], 100 to 1000 nM in assay [3] and under 100 nM in assay [4].

Turning to `CCN(Cc1cccc(C)c1)C(=O)n1cc(C(F)(F)F)cn1` [Example 247, N-Ethyl-N-(3-methylbenzyl)-4-(trifluoromethyl)-1H-pyrazole-1-carboxamide], the inhibition at 1 µM in assay [1] (gel-based competitive ABPP) is 25 to 75%; in assay [2] (gel-based competitive ABPP), under 25%; in assay [3] (gel-based competitive ABPP), under 25%; in assay [4] (gel-based competitive ABPP), over 75%. In addition, the inhibition at 10 µM is over 75% in assay [1] (gel-based competitive ABPP), under 25% in assay [2] (gel-based competitive ABPP), over 75% in assay [3] (gel-based competitive ABPP) and over 75% in assay [4] (gel-based competitive ABPP). The IC50 was 100 to 1000 nM in assay [1], over 1000 nM in assay [2], 100 to 1000 nM in assay [3] and 100 to 1000 nM in assay [4].

For the molecule `CCN(Cc1cccc(C)c1)C(=O)n1cc(C)cn1` [Example 248, N-ethyl-4-methyl-N-(3-methylbenzyl)-1H-pyrazole-1-carboxamide], the inhibition at 1 µM in assay [1] (gel-based competitive ABPP), in assay [2] (gel-based competitive ABPP), in assay [3] (gel-based competitive ABPP) and in assay [4] (gel-based competitive ABPP) was under 25% throughout.

`CCN(Cc1cccc(OC)c1)C(=O)n1cc(C#N)cn1` [Example 249, 4-Cyano-N-ethyl-N-(3-methoxybenzyl)-1H-pyrazole-1-carboxamide]: the inhibition at 1 µM in assay [1] (gel-based competitive ABPP) was under 25%; in assay [2] (gel-based competitive ABPP) it was under 25%; in assay [3] (gel-based competitive ABPP) it was over 75%; in assay [4] (gel-based competitive ABPP), over 75%. The inhibition at 10 µM in assay [1] (gel-based competitive ABPP) was over 75%; in assay [2] (gel-based competitive ABPP) it was 25 to 75%; in assay [3] (gel-based competitive ABPP), over 75%; in assay [4] (gel-based competitive ABPP), over 75%. Besides, the IC50 in assay [1] was over 1000 nM; in assay [3], 100 to 1000 nM; in assay [4], under 100 nM.
